Consider four compounds from ChEMBL document CHEMBL3272321, “Preliminary biological studies of certain amino acid analogues” (J Med Chem, 1976).

A short description of series [1]: Retardation factor, Rf of the compound by paper chromatographic analysis. The series is classed as physicochemical.
Series [2] is filed under the species Mus musculus. The series is described as follows: Toxicity in albino mouse assessed as tissue damage. Format: organism-based. Conditions: in vivo.
Series [3] deals with Mus musculus. Description: Toxicity in albino mouse at 400 mg/kg, ip qd for 7 days measured after 7 days. Format: organism-based. Set-up: dose 400 mg/kg, route intraperitoneal. Conditions: in vivo, 168 h.
A short description of series [4]: Drug excretion in albino mouse feces at 2 mg, sc after 24 hrs. The series is classed as ADME, organism-based. Conditions: faeces, read-out: Drug excretion.
Series [5] relates to Escherichia coli. The series is described as follows: Bacteriostatic activity against Escherichia coli 9723 at 5 to 15 X 10^-5 mole/10 ml after 5 to 25 hrs by spectrophotometric analysis in presence of L-phenylalanine. Format: functional, organism-based.
The nature of series [6]: Drug excretion in albino mouse urine at 2 mg, sc after 24 hrs. The series is classed as ADME, organism-based. As to conditions: read-out: Drug excretion.
For series [7], the system named is Escherichia coli. The series is described as follows: Bacteriostatic activity against Escherichia coli 9723 after 8 hrs by spectrophotometric analysis. Format: functional.
For series [8], the system named is Escherichia coli. The series is described as follows: Bacteriostatic activity against Escherichia coli 9723 at 5 to 15 X 10^-5 mole/10 ml after 5 to 25 hrs by spectrophotometric analysis. Format: functional, organism-based.
Series [9] relates to Escherichia coli. Description: Bacteriostatic activity against Escherichia coli 9723 after 19 hrs by spectrophotometric analysis. The series is classed as functional.
For series [10], the system named is Escherichia coli. Description: Bacteriostatic activity against Escherichia coli 9723 at 5 to 15 X 10^-5 mole/10 ml after 5 to 25 hrs by spectrophotometric analysis in presence of D-methionine. Format: functional, organism-based.
Series [11] relates to Escherichia coli. Description: Bacteriostatic activity against Escherichia coli 9723 at 5 to 15 X 10^-5 mole/10 ml after 5 to 25 hrs by spectrophotometric analysis in presence of L-methionine. The series is classed as functional, organism-based.

The structures appear in SMILES notation. Active and inactive are the calls of the source. The rule behind the calls is not given here.

`CC(N)(C(=O)O)C1CC1` (stereo not given) had a Rf in [1] of 0.56. Also, the Activity entry in [2] and in series [3] was “Non-toxic” in each case.

Turning to `CC[C@](N)(Cc1ccccc1)C(=O)O`, the Rf in series [1] came to 0.77. The Activity entry in series [2] and in series [3] was “Non-toxic” in each case. Besides, the dose excreted at 24 h in series [4] was 2.1%; in series [6], 97.9%. The result in series [5] was inactive. Moreover, the GI90 in [7] was determined as 0.0025 M; in series [9], 0.005 M. Further, the outcome in [8] was Active.

In series [1], `NC(C(=O)O)(C1CC1)C1CC1` came in with a Rf of 0.64. The Activity entry in series [2] and in [3] was “Non-toxic” in each case.

Regarding `C=CCCC(C)(N)C(=O)O` (stereo not given), the outcome in series [10] and in series [11] was inactive. For the same compound, the Rf in series [1] was 0.71. Also, the Activity result in series [2] and in series [3] was “Non-toxic” in each case. In addition, the dose excreted at 24 h in series [4] was 2.2%; in [6] it was 97.6%. Also, the GI90 was found to be 0.0013 M in series [7] and 0.01 M in series [9]. For the same compound, in series [8], the result was Active.
